# Key:
# HCT-8 cells = test: in vitro proliferating human colon adenocarcinoma (HCA) cell screen; type: cell-based; details: Table 1, 60 to 65 hours with compound, 50% inhibition of growth, read-out: HCA—3 in vitro ID50
# Protocol: One test protocol is the in vitro proliferating human colon adenocarcinoma (HCA) cell screen. In this test, HCT-8 cells (HCA cell line received from Yale University) are trypsinized using trypsin-EDTA. A single cell suspension is achieved by passing the cells through a 26 gauge needle with a 20 cc syringe. A cell suspension is prepared using RPMI 1640 + 10% FCS + 50) g/ml gentamicin sulfate with a cell concentration of approximately 30,000 cells/ml. The cell suspension is dispensed in Linbro 24-well plates; 1 ml/well. The plates are incubated for approximately 48 hours at 37°C in a 5% C02 atmosphere. At this time test compounds are added in the appropriate concentration. Five µl of the 200 µg/ml stock solution is added to each well in primary test. Ten µl of the appropirate dilution is added to each well for a titration test. The plates are re-incubated an additional 60 to 65 hours at 37°C in a 5% C02 atmosphere. The cells are lysed using a mix of cationic surfactant, glacial acetic acid, and sodium chloride. Two ml of the lysed cell suspension from each well is added to 8 ml of diluent. The number of nuclei is determined using a Coulter counter (ZBI model), and a percent growth for each drug concentration is calculated. From this, an ID50 molar concentration of a compound (that results in 50% inhibition of growth) is determined.
# Bacillus subtilis 04555 = test: in vitro antibacterial/antifungal (ABF) agar-disk diffusion test; type: cell-based; details: read-out: ABF Zone Diameter (cont. in mg/ml) B. Sub-tilis; for zone of inhibition at 500 µg/mL: 0.5 mg/ml; for zone of inhibition at 3000 µg/mL: 3 mg/ml
# Protocol: (§1) Still another test protocol is the in vitro antibacterial/antifungal (ABF) test. Compounds are tested for antimicrobial activity in an agar-disk diffusion assay, a standard microbiological technique for testing antibiotics'. After incubation of each culture with a test compound, a zone of inhibition is determined. The zone diameter (mm) of active compounds ranges from a minimum of 13.5 mm to as high as 60 mm, with a greater diameter reflecting higher activity. For convenience, values are reported for two gram-negative bacteria (Aerobacter aerogenes 0126 and Escherichia coli 04863), two gram-positive bacteria (Bacillus subtilis 04555 and Streptococcus faecalis 05045 utilizing AM-09 medium), and one mycelial fungus (Penicillium avellaneum M2988).
# Escherichia coli 04863 = test: as above; type: cell-based; details: read-out: ABF Zone Diameter (cont. in mg/ml) E. Coli; for zone of inhibition at 500 µg/mL: 0.5 mg/ml; for zone of inhibition at 3000 µg/mL: 3 mg/ml
# Protocol: as §1
# [1] = test system: Streptococcus faecalis 05045; test: as above; type: cell-based; details: Enterococcus faecalis, AM-09 medium, read-out: ABF Zone Diameter (cont. in mg/ml) S. Fae-calis; for zone of inhibition at 500 µg/mL: 0.5 mg/ml; for zone of inhibition at 3000 µg/mL: 3 mg/ml; for zone of inhibition at 1000 µg/mL: 1 mg/ml
# Protocol: as §1
# [2] = test system: Penicillium avellaneum M2988; test: as above; type: cell-based; details: Hamigera avellanea, read-out: ABF Zone Diameter (cont. in mg/ml) P. Avell-aneum; for zone of inhibition at 3000 µg/mL: 3 mg/ml
# Protocol: as §1
# [3] = test system: Aerobacter aerogenes 0126; test: as above; type: cell-based; details: Klebsiella aerogenes, read-out: ABF Zone Diameter (cont. in mg/ml) A. Aero-genes; for zone of inhibition at 100 µg/mL: 0.1 mg/ml; for zone of inhibition at 3000 µg/mL: 3 mg/ml
# Protocol: as §1
# L1210 cells = test: L1210 murine leukemia cell growth inhibition in vitro; type: cell-based; details: Mus musculus, 72 h, Table 1, three days incubation, 50% inhibition of growth, read-out: L1210 in vitro ID50
# Protocol: Another test protocol uses L1210 cells, a murine leukemia cell line, grown in RPMI 1640 supplemented with 5% fetal bovine serum and gentamicin ([…]). Drug dilutions are prepared in the appropriate solvent and 20 µl of each dilution are added to 24-well Linbro tissue culture plates, followed by the addition of 2.0 ml of cell suspension containing 3 x 10^4 cells per ml. Solvent and medium controls are included in each test. After incubation at 37°C forthree days in 5% C02, the contents of each well are removed and the cells counted in a ZBI Coulter counter. Percent growth are calculated relative to the controls and the levels of drug activity are expressed as ID50 in moles per liter.
# [4] = test system: lymphocytic leukemia P388; test: in vivo lymphocytic leukemia P388 test; design: species or system mice; details: Mus musculus, P388, ip, 120 h, read-out: P388 in vivo T/C × 100; for response vs control in vivo at 3.12 mg/kg: Dose 3.12 mg/kg intraperitoneally once daily for five days; for response vs control in vivo at 6.25 mg/kg: Dose 6.25 mg/kg intraperitoneally once daily for five days; for response vs control in vivo at 12.5 mg/kg: Dose 12.50 mg/kg intraperitoneally once daily for five days; for response vs control in vivo at 50 mg/kg: Dose 50.00 mg/kg intraperitoneally once daily for five days; for response vs control in vivo at 25 mg/kg: Dose 25.00 mg/kg intraperitoneally once daily for five days
# Protocol: Another test protocol is the in vivo lymphocytic leukemia P388 test. The animals used are either male or female CD2F, mice. There are six or seven animals per test group. The tumor transplant is by intraperitoneal injection of dilute ascitic fluid containing cells of lymphocytic leukemia P388. The test compounds are administered intraperitoneally once daily for five consecutive days at various doses following tumor inoculation. The animals are weighed and survivors are recorded on a regular basis for 30 days. A compound is designated "toxic" if, at a given dose, all animals died prior to four days after the first injection of drug. A ratio of survival time for treated (T)/control (C) animals is calculated. A criterion for efficacy is a ratio T/C times 100 greater than or equal to 125. See Cancer Chemotherapy Reports, Part 3, 3; 1 (1972) for a comprehensive discussion of the protocol.
SMILES,IC50 (HCT-8 cells) [nM],zone of inhibition at 500 µg/mL (Bacillus subtilis 04555) [mm],zone of inhibition at 500 µg/mL (Escherichia coli 04863) [mm],zone of inhibition at 3000 µg/mL [2] [mm],zone of inhibition at 100 µg/mL [3] [mm],IC50 (L1210 cells) [nM],response vs control in vivo at 3.12 mg/kg [4] [%],response vs control in vivo at 6.25 mg/kg [4] [%],response vs control in vivo at 12.5 mg/kg [4] [%],zone of inhibition at 3000 µg/mL [1] [mm],zone of inhibition at 3000 µg/mL [3] [mm],zone of inhibition at 3000 µg/mL (Bacillus subtilis 04555) [mm],zone of inhibition at 1000 µg/mL [1] [mm],further results
"CCN(CC)CCn1nc2c3c(c(NCCNCCO)ccc31)Sc1ccccc1-2 [CH2CH2N(C2H5)2 / NHCH2CH2NHCH2CH2OH, 2-[[2-[[2-[2-(Diethylamino)ethyl]-2H[1]benzothiopyrano[4,3,2-cd]indazol-5-yl]amino]ethyl]amino]ethanol]",200,18,26,0,15,82,209,219,280,,,,,zone of inhibition at 500 µg/mL [1]: 16 mm
"CCN(CC)CCn1nc2c3c(c(NC(C)=O)ccc31)Sc1ccccc1-2 [CH2CH2N(C2H5)2 / NHCOCH3, N-[2-[2-(Diethylamino)ethyl]-2H-[1]benzothiopyrano[4,3,2-cd]indazol-5-yl]acetamide]",600,16,,0,,240,,,170,15,16,,,zone of inhibition at 3000 µg/mL (Escherichia coli 04863): 16 mm
CCN(CC)CCn1nc2c3c(c(NCCN4CCOC4=O)ccc31)Sc1ccccc1-2 [CH2CH2N(C2H5)2 /],1800,,,0,,950,,,,,0,13,,zone of inhibition at 3000 µg/mL (Escherichia coli 04863): 0 mm; zone of inhibition at 500 µg/mL [1]: 14 mm; response vs control in vivo at 47.45 mg/kg ([4]; Dose 47.45 mg/kg intraperitoneally once daily for five days): 141%; response vs control in vivo at 50 mg/kg [4]: 140%; response vs control in vivo at 63.28 mg/kg ([4]; Dose 63.28 mg/kg intraperitoneally once daily for five days): 165%; response vs control in vivo at 84.38 mg/kg ([4]; Dose 84.38 mg/kg intraperitoneally once daily for five days): 193%; response vs control in vivo at 100 mg/kg ([4]; Dose 100.00 mg/kg intraperitoneally once daily for five days): 218%
CN(C)CCn1nc2c3c(c(N)ccc31)Sc1ccccc1-2 [CH2CH2N(CH2)2 / NH2],280,15,16,,14,80,,126,160,,,,20,zone of inhibition at 500 µg/mL ([2]; 0.5 mg/ml): 17 mm
"CCN(CC)CCn1nc2c3c(c([N+](=O)[O-])ccc31)Sc1ccccc1-2 [CH2CH2N(CH2H5)2 / HO2, N,N-Diethyl-5-nitro-2H[1]benzothiopyrano[4,3,2-cd]-indazole-2-ethanamine]",200,,,15,,56,,,,14,0,14,,zone of inhibition at 1000 µg/mL (Escherichia coli 04863; 1 mg/ml): 14 mm; response vs control in vivo at 25 mg/kg [4]: 138%; response vs control in vivo at 50 mg/kg [4]: 170%
"CN(C)CCn1nc2c3c(c([N+](=O)[O-])ccc31)Sc1ccccc1-2 [CH2CH2N(CH3)2 / NO2, N,N dimethyl-5-nitro-2H[1]benzothiopyrano[4,3,2-cd]indazole-2-ethanamine]",97,,,,,79,,,158,15,,15,,zone of inhibition at 100 µg/mL (Escherichia coli 04863; 0.1 mg/ml): 14 mm; zone of inhibition at 100 µg/mL ([2]; 0.1 mg/ml): 15 mm; zone of inhibition at 1000 µg/mL ([3]; 1 mg/ml): 15 mm
"NCCn1nc2c3c(c(N)ccc31)Sc1ccccc1-2 [CH2CH2NH2 / NH2, 5-amino-2H[1]benzothiopyrano[4,3,2]-cd]indazole-2-ethanamine]",320,,19,0,17,110,125,131,160,,,,15,zone of inhibition at 1000 µg/mL (Bacillus subtilis 04555; 1 mg/ml): 18 mm
Nc1ccc2c3c(nn2CCNCCO)-c2ccccc2Sc13 [CH2CH2NHCH2CH2OH / NH2],580,18,17,15,,170,135,143,159,,,,20,zone of inhibition at 500 µg/mL ([3]; 0.5 mg/ml): 16 mm; response vs control in vivo at 25 mg/kg [4]: 194%
